Assay results reported in patent US20250262230A1, “HMGB1 Inhibitors for Treatment of APOE4-related Tauopathies including Alzheimer’s Disease” (The J. David Gladstone Institutes, a testamentary trust …, priority 2022, published 2025).

B1: HMGB1: recombinant HMGB1 protein used to treat primary neurons (protein, listed as Homo sapiens)
chain: MGKGDPKKPRGKMSSYAFFVQTCREEHKKKHPDASVNFSEFSKKCSERWKTMSAKEKGKFEDMAKADKARYEREMKTYIPPKGETKKKFKDPNAPKRPPSAFFLFCSEYRPKIKGEHPGLSIGDVAKKLGEMWNNTAADDKQPYEKKAAKLKEKYEKDIAAYRAKGKPDAAKKGVVKAEKSKKKKEEEEDEEDEEDEEEEEDEEDEDEEEDDDDE

Assays:
[1] = tested on: PS19-fE4/GFAP-Cre primary neurons; experiment: Recombinant protein treatment of primary neurons, APOE sandwich ELISA of cell lysates; format: cell-based, mouse; conditions: 10 μg/mL recombinant protein, 24 hours, day 14 in vitro
Protocol: (§1) Biochemically extracted mouse hippocampal tissue lysates were diluted in Milli-Q H2O to the appropriate concentration and were run according to the provided manufacturer protocols (human APOE (Abcam); mouse HMGB1 (Novus Biologicals). Reactions of samples were read on a SpectraMaX M5 spectrophotometer (Molecular Devices) and protein concentrations were determined after interpolating a standard curve and adjusting for dilutions.
(§2) Primary cultures of neurons were prepared from prenatal E20 pups of various genotypes. After collecting pup brains, the cortex plus hippocampus were isolated and placed in ice-cold dissociation media+kyneurenic acid media (DM/KY) (DM:Na2SO4 (81.8 mM); K2SO4 (30 mM); MgCl2 (5.8 mM), CaCl2) (0.25 mM); HEPES (1 mM); glucose (20 mM); phenol red (0.001%); NaOH (0.16 mM) in distilled H2O) (KY: kynurenic acid (10 mM); phenol red (0.0025%); HEPES (5 mM); MgCl2 (100 mM); NaOH (add dropwise until pH 7.4). The resulting DM/KY media was made by combining 90% DM with 10% KY media. The isolated tissue was finely minced and then submerged in pre-warmed Papain solution (1 mL per brain) for 13 minutes while gently inverting and then submerged in trypsin inhibitor solution for 5 minutes (5 mL for up to 10 brains) while gently inverting. The tissue pellet was washed with Optimem/Glucose solution (20 mM glucose, 1 mL per brain) while gently inverting. Then, fresh Optimem/Glucose solution was added and tissue was gently triturated until separated into single cells. After filtering the cells through a 40 um cell strainer, the dissociated cells were plated at 1×10^6 cells/well of a 12-well plate or 3×10^5 cells/well of a 24-well plate in Neurobasal medium supplemented with B27, 100 U/mL^−1 of penicillin G, 100 µg/mL^−1 of streptomycin, and 1% GlutaMAX (B27/Neurobasal). Every 3-4 days, half of the media was removed and replaced with fresh B27/Neurobasal media. In some experiments, primary neurons were treated with either a Dulbecco's PBS (dPBS) vehicle or a recombinant protein of interest (10 μg/mL for one well of a 12-well plate) for 24 hours at day 14 in vitro. […]
(§3) The inventors hypothesized that astrocytic APOE4 may regulate neuronal APOE4 expression by promoting the release of these factors that activate the neuronal ERK pathway, leading to increased neuronal APOE4 expression. […] The APOE protein levels were then quantitatively evaluated in the primary neuronal cell lysates by sandwich ELISA.
(§4) Experiments were also performed to determine whether HMGB1 is a potential modulatory factor of neuronal APOE4 expression. As such, primary neurons isolated from PS19-fE4/GFAP-Cre and PS19-fE4 mice were treated with 10 μg/mL of recombinant HMGB1 protein or a dPBS control and the APOE protein levels were quantitatively evaluated in cell lysates by sandwich ELISA.

[2] = tested on: PS19-fE4 primary neurons; experiment: as above; format: cell-based, mouse; conditions: 10 μg/mL recombinant protein, 24 hours, day 14 in vitro
Protocol: as §1, §2, §3, §4

Molecule	increase in APOE protein levels relative to the dPBS control [1] [%]	APOE protein levels in cell lysates vs dPBS control [2]	APOE protein levels in cell lysates vs dPBS control [1]
DPP10: recombinant DPP10 protein used to treat primary neurons	98	no significant difference in APOE levels	
B1		A significant difference was not observed	A significant difference was not observed
